Experimental findings from US12049439B2 (OrsoBio, Inc., priority 2018, dated 2024) are described below.

Broadly, the EC50 is the midpoint of the concentration-response curve.

The test system of one experiment is PC-3 cells. Nature of the experiment: PC-3 Oxygen Rate Consumption (OCR) Assay. The format is cell-based. The settings on record: Homo sapiens, 0.05 h, medium with 2% FBS, OCR at 3-min post-injection normalized to % increase over DMSO-treated cells, concentration for half-maximal OCR increase, read-out: EC50-PC3-OCR-FBS-3min. A digest of the protocol: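 PC-3 cells seeded a day before, equilibrated 1 h in XF medium with 10 mM glucose, 1 mM pyruvate, 2% FBS, non-CO2 at 37 °C. Compound injected after basal OCR reads; OCR at 3 min post-injection normalized as % increase over DMSO, EC50 = half-maximal increase; six replicates.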
With `COc1ccc(C(=O)NC23CC(c4ccccc4)(C2)C3)c(NS(=O)(=O)c2ccc(S(C)(=O)=O)cc2)c1` [Example 89, 4-methoxy-2-((4-(methylsulfonyl)phenyl)sulfonamido)-N-(3-phenylbicyclo[1.1.1]pentan-1-yl)benzamide], the EC50 is 26700 nM. `CS(=O)(=O)c1ccc(S(=O)(=O)Nc2ccc(Cl)cc2C(=O)NC23CC(C(F)(F)F)(C2)C3)cc1` [Example 90, 5-chloro-2-((4-(methylsulfonyl)phenyl)sulfonamido)-N-(3-(trifluoromethyl)bicyclo[1.1.1]pentan-1-yl)benzamide]: the EC50 worked out at 2670 nM. Same read-out and setting: next, `CS(=O)(=O)c1ccc(S(=O)(=O)Nc2ccc(Cl)cc2C(=O)NC23CC(c4ccccc4)(C2)C3)cc1` [Example 91, 5-chloro-2-((4-(methylsulfonyl)phenyl)sulfonamido)-N-(3-phenylbicyclo[1.1.1]pentan-1-yl)benzamide]: 2970 nM; `CS(=O)(=O)c1ccc(S(=O)(=O)Nc2cc(Cl)c(Cl)cc2C(=O)NC23CC(C(F)(F)F)(C2)C3)cc1` [Example 92, 4,5-dichloro-2-((4-(methylsulfonyl)phenyl)sulfonamido)-N-(3-(trifluoromethyl)bicyclo[1.1.1]pentan-1-yl)benzamide]: 8090 nM.

For `CS(=O)(=O)c1ccc(S(=O)(=O)Nc2cc(Cl)c(Cl)cc2C(=O)NC23CC(c4ccccc4)(C2)C3)cc1` [Example 93, 4,5-dichloro-2-((4-(methylsulfonyl)phenyl)sulfonamido)-N-(3-phenylbicyclo[1.1.1]pentan-1-yl)benzamide], the EC50 came to 2640 nM. Regarding `CC(C)(C)S(=O)(=O)Nc1ccc(Br)cc1C(=O)NC12CC(c3ccccc3)(C1)C2` [Example 94, 5-bromo-2-((1,1-dimethylethyl)sulfonamido)-N-(3-phenylbicyclo[1.1.1]pentan-1-yl)benzamide], the concentration for a half-maximal effect (EC50) was found to be 6160 nM. On the same count and under the same terms, next, `CC(C)(C)S(=O)(=O)Nc1ccc(Br)cc1C(=O)NC12CC(C(F)(F)F)(C1)C2` [Example 95, 5-bromo-2-((1,1-dimethylethyl)sulfonamido)-N-(3-(trifluoromethyl)bicyclo[1.1.1]pentan-1-yl)benzamide]: 1120 nM; `CC(C)(C)S(=O)(=O)Nc1ccc(C#N)cc1C(=O)NC12CC(c3ccccc3)(C1)C2` [Example 96, 5-cyano-2-((1,1-dimethylethyl)sulfonamido)-N-(3-phenylbicyclo[1.1.1]pentan-1-yl)benzamide]: 1280 nM.

Consider `CC(C)(C)S(=O)(=O)Nc1ccc(C#N)cc1C(=O)NC12CC(C(F)(F)F)(C1)C2` [Example 97, 5-cyano-2-((1,1-dimethylethyl)sulfonamido)-N-(3-(trifluoromethyl)bicyclo[1.1.1]pentan-1-yl)benzamide], for which the EC50 is 1430 nM. On to `CC(C)(C)S(=O)(=O)Nc1cc(C#N)ccc1C(=O)NC12CC(c3ccccc3)(C1)C2` [Example 98, 4-cyano-2-((1,1-dimethylethyl)sulfonamido)-N-(3-phenylbicyclo[1.1.1]pentan-1-yl)benzamide], for which the EC50 was determined as 1980 nM. On to `CC(C)(C)S(=O)(=O)Nc1cc(C#N)ccc1C(=O)NC12CC(C(F)(F)F)(C1)C2` [Example 99, 4-cyano-2-((1,1-dimethylethyl)sulfonamido)-N-(3-(trifluoromethyl)bicyclo[1.1.1]pentan-1-yl)benzamide], for which the EC50 came to 1180 nM. The same measure, in the same setting: next, `CC(C)(C)S(=O)(=O)Nc1ccc(-c2ncccn2)cc1C(=O)NC12CC(C(F)(F)F)(C1)C2` [Example 100, 2-((1,1-dimethylethyl)sulfonamido)-5-(pyrimidin-2-yl)-N-(3-(trifluoromethyl)bicyclo[1.1.1]pentan-1-yl)benzamide]: 14200 nM; `O=C(NC12CC(C(F)(F)F)(C1)C2)c1ccc(C(F)(F)F)cc1NS(=O)(=O)c1ccc(-c2ncccn2)cc1` [Example 101, 2-((4-(pyrimidin-2-yl)phenyl)sulfonamido)-4-(trifluoromethyl)-N-(3-(trifluoromethyl)bicyclo[1.1.1]pentan-1-yl)benzamide]: 1180 nM. Same read-out and setting: next, `CN(C)c1ccc(S(=O)(=O)Nc2cc(C(F)(F)F)ccc2C(=O)NC23CC(C(F)(F)F)(C2)C3)cc1` [Example 102, 2-((4-(dimethylamino)phenyl)sulfonamido)-4-(trifluoromethyl)-N-(3-(trifluoromethyl)bicyclo[1.1.1]pentan-1-yl)benzamide]: 2420 nM; `CS(=O)(=O)Oc1ccc(S(=O)(=O)Nc2cc(C(F)(F)F)ccc2C(=O)NC23CC(C(F)(F)F)(C2)C3)cc1` [Example 103, 4-(N-(5-(trifluoromethyl)-2-((3-(trifluoromethyl)bicyclo[1.1.1]pentan-1-yl)carbamoyl)phenyl)sulfamoyl)phenyl methanesulfonate]: 1880 nM; `CCCS(=O)(=O)Nc1ccc(C#N)cc1C(=O)NC12CCC(C#N)(CC1)CC2` [Example 104, 5-cyano-N-(4-cyanobicyclo[2.2.2]octan-1-yl)-2-(propylsulfonamido)benzamide]: 37500 nM. Take `CS(=O)(=O)Nc1ccc(C(F)(F)F)cc1C(=O)NC12CCC(C#N)(CC1)CC2` [Example 105, N-(4-cyanobicyclo[2.2.2]octan-1-yl)-2-(methylsulfonamido)-5-(trifluoromethyl)benzamide]: the EC50 worked out at 22900 nM. Same read-out and setting: next, `O=C(NC12CC(C(F)(F)F)(C1)C2)c1ccc(C(F)(F)F)cc1NS(=O)(=O)c1ccc(N2CCS(=O)(=O)CC2)cc1` [Example 106, 2-((4-(1,1-dioxidothiomorpholino)phenyl)sulfonamido)-4-(trifluoromethyl)-N-(3-(trifluoromethyl)bicyclo[1.1.1]pentan-1-yl)benzamide]: 18800 nM; `CS(=O)(=O)Nc1ccc(S(=O)(=O)Nc2cc(C(F)(F)F)ccc2C(=O)NC23CC(C(F)(F)F)(C2)C3)cc1` [Example 107, 2-((4-(methylsulfonamido)phenyl)sulfonamido)-4-(trifluoromethyl)-N-(3-(trifluoromethyl)bicyclo[1.1.1]pentan-1-yl)benzamide]: 30600 nM; `O=C(NC12CC(C(F)(F)F)(C1)C2)c1ccc(C(F)(F)F)cc1NS(=O)(=O)c1ccc(F)cc1` [Example 109]: 380 nM. `CC(C)(C)S(=O)(=O)Nc1cc(C(F)(F)F)ccc1C(=O)NC12CC(C(F)(F)F)(C1)C2` [Example 110, 2-((1,1-dimethylethyl)sulfonamido)-4-(trifluoromethyl)-N-(3-(trifluoromethyl)bicyclo[1.1.1]pentan-1-yl)benzamide]: the EC50 is 445 nM. The same measure, in the same setting: next, `COc1ccc(S(=O)(=O)Nc2cc(C(F)(F)F)ccc2C(=O)NC23CC(C(F)(F)F)(C2)C3)cc1` [Example 111, 2-((4-methoxyphenyl)sulfonamido)-4-(trifluoromethyl)-N-(3-(trifluoromethyl)bicyclo[1.1.1]pentan-1-yl)benzamide]: 811 nM; `COCCOc1ccc(S(=O)(=O)Nc2cc(C(F)(F)F)ccc2C(=O)NC23CC(C(F)(F)F)(C2)C3)cc1` [Example 112, 2-((4-(2-methoxyethoxy)phenyl)sulfonamido)-4-(trifluoromethyl)-N-(3-(trifluoromethyl)bicyclo[1.1.1]pentan-1-yl)benzamide]: 1290 nM; `CSCCOc1ccc(S(=O)(=O)Nc2cc(C(F)(F)F)ccc2C(=O)NC23CC(C(F)(F)F)(C2)C3)cc1` [Example 113, 2-((4-(2-(methylthio)ethoxy)phenyl)sulfonamido)-4-(trifluoromethyl)-N-(3-(trifluoromethyl)bicyclo[1.1.1]pentan-1-yl)benzamide]: 697 nM. The same measure, in the same setting: next, `CC(C)(C)S(=O)(=O)Nc1cc(C(F)(F)F)ccc1C(=O)NC12CCC(C#N)(CC1)CC2` [Example 114, N-(4-cyanobicyclo[2.2.2]octan-1-yl)-2-((1,1-dimethylethyl)sulfonamido)-4-(trifluoromethyl)benzamide]: 3480 nM. Same read-out and setting: next, `CS(=O)(=O)CCOc1ccc(S(=O)(=O)Nc2cc(C(F)(F)F)ccc2C(=O)NC23CC(C(F)(F)F)(C2)C3)cc1` [Example 115, 2-((4-(2-(methylsulfonyl)ethoxy)phenyl)sulfonamido)-4-(trifluoromethyl)-N-(3-(trifluoromethyl)bicyclo[1.1.1]pentan-1-yl)benzamide]: 12600 nM. For `CCS(=O)(=O)Nc1cc(C(F)(F)F)ccc1C(=O)NC12CC(C(F)(F)F)(C1)C2` [Example 116, 2-(ethylsulfonamido)-4-(trifluoromethyl)-N-(3-(trifluoromethyl)bicyclo[1.1.1]pentan-1-yl)benzamide], the EC50 worked out at 1580 nM.

For `CS(=O)(=O)Nc1cc(S(F)(F)(F)(F)F)ccc1C(=O)NC12CCC(C#N)(CC1)CC2` [Example 117, N-(4-cyanobicyclo[2.2.2]octan-1-yl)-2-(methylsulfonamido)-4-(pentafluoro-λ^6-sulfanyl)benzamide], the EC50 was 4020 nM.

For `CS(=O)(=O)c1ccc(S(=O)(=O)Nc2ccc(C(F)(F)F)cc2C(=O)NC23CCC(C#N)(CC2)CC3)cc1` [Example 118, N-(4-cyanobicyclo[2.2.2]octan-1-yl)-2-((4-(methylsulfonyl)phenyl)sulfonamido)-5-(trifluoromethyl)benzamide], the EC50 amounted to 49200 nM. The same measure, in the same setting: next, `N#CC12CCC(NC(=O)c3cc(C(F)(F)F)ccc3NS(=O)(=O)c3ccc(F)cc3)(CC1)CC2` [Example 119, N-(4-cyanobicyclo[2.2.2]octan-1-yl)-2-((4-fluorophenyl)sulfonamido)-5-(trifluoromethyl)benzamide]: 1260 nM.

Still in this experiment, the particulars now being: medium with 2% FBS, OCR at 3-min post-injection normalized to % increase over DMSO-treated cells, concentration for half-maximal OCR increase, read-out: EC50-PC3-OCR-FBS-3min.
On to `N#CC1(S(=O)(=O)Nc2ccc(C(F)(F)F)cc2C(=O)NC23CC(C(F)(F)F)(C2)C3)CC1` [Example 108, 2-((1-cyanocyclopropane)-1-sulfonamido)-5-(trifluoromethyl)-N-(3-(trifluoromethyl)bicyclo[1.1.1]pentan-1-yl)benzamide], for which the EC50 was found to be 8440 nM.
